Measurements published in US20050282841A1 (priority 2004, published 2005).

How the values were obtained:
Type in all cases: in vivo
Conditions in all cases: on tomatoes, wheat and vine crops
[1] = test system: Septoria leaf spot (Septoria tritici); assay: fungicidal effectiveness against Septoria leaf spot
[2] = test system: Brown rust (Puccinia recondita); assay: fungicidal effectiveness against Brown rust
[3] = test system: Powdery mildew (Erisyphe araminis); assay: fungicidal effectiveness against Powdery mildew
[4] = test system: Late blight (Phytophthora infestans)

CO/N=C(/C(=O)OC(Cn1cncn1)(c1ccc(Cl)cc1)C(C)C1CC1)c1ccccc1COc1ccccc1C (racemic) [Example 2, (2RS,3RS;2RS,3SR)-2-(4-chlorophenyl)-3-cyclopropyl-1-(1H-1,2,4-triazol-1-yl)butan-2-yl (E)-methoxyimino[α-(o-tolyloxy)-o-tolyl]acetate]
effective: effectiveness against fungal pathogen Septoria leaf spot (Septoria tritici) [1] | effectiveness against fungal pathogen Brown rust (Puccinia recondita) [2] | effectiveness against fungal pathogen Powdery mildew (Erisyphe araminis) [3] | effectiveness against fungal pathogen Late blight (Phytophthora infestans) [4]

CO/C=C(/C(=O)OC(c1ccccc1)(c1cncnc1)c1ccc(Cl)cc1Cl)c1ccccc1Oc1cc(Oc2ccccc2C#N)ncn1 (racemic) [Example 1, (RS)-2,4-dichloro-α-(pyrimidin-5-yl)benzhydryl (E)-2-{2-[6-(2-cyanophenoxy)pyrimidin-4-yloxy]phenyl}-3-methoxyacrylate]
effective: effectiveness against fungal pathogen Septoria leaf spot (Septoria tritici) [1] | effectiveness against fungal pathogen Brown rust (Puccinia recondita) [2] | effectiveness against fungal pathogen Powdery mildew (Erisyphe araminis) [3] | effectiveness against fungal pathogen Late blight (Phytophthora infestans) [4]

CO/N=C(/C(=O)OC(CCc1ccc(Cl)cc1)(Cn1cncn1)C(C)(C)C)c1ccccc1CO/N=C(\C)c1cccc(C(F)(F)F)c1 (racemic) [Example 3, (RS)-1-p-chlorophenyl-4,4-dimethyl-3-(1H-1,2,4-triazol-1-ylmethyl)pentan-3-yl (E)-methoxyimino-{(E)-α-[1-(α,α,α-trifluoro-m-tolyl)ethylideneaminooxy]-o-tolyl}acetate]
effective: effectiveness against fungal pathogen Septoria leaf spot (Septoria tritici) [1] | effectiveness against fungal pathogen Brown rust (Puccinia recondita) [2] | effectiveness against fungal pathogen Powdery mildew (Erisyphe araminis) [3] | effectiveness against fungal pathogen Late blight (Phytophthora infestans) [4]
